Assay results: EP1914235A1, “CHIRAL TETRA-HYDRO BETA-CARBOLINE DERIVATIVES AND APPLICATIONS THEREOF AS ANTIPARASITIC COMPOUNDS” (Université de Lille 2 Droit et Santé, priority 2006, dated 2008)
In brackets after ≈: the same amount, converted by molar mass. Like-named read-outs stand apart in the source and are kept apart here.

How the values were obtained:
P. falciparum K1 strain = experiment: [3H]hypoxanthine drug sensitivity assay, K1 strain; assay type: cell-based; details: Plasmodium falciparum
Procedure: (§1) The cultures are naturally asynchronous (65-75% ring stage) and are maintained in continuous log phase growth in RPMI-1640 medium (as developed by Moore et. al. at Roswell Park Memorial Institute, sold by Sigma Aldrich) supplemented with 5% washed human A+ erythrocytes, 25 mM Hepes, […] NaHCO3, and AlbuMAXII (lipid-rich bovine serum albumin) sold GIBCO, Grand Island, NY (CM). All cultures and assays were conducted at 37°C under an atmosphere of 5% CO2 and 5% O2, with a balance of N2.
(§2) The compounds were further diluted to the appropriate concentration using complete medium RPMI-1640 supplemented with 15nM cold hypoxanthine and AlbuMAXII.
(§3) Assays were performed in sterile 96-well microtitre plates; each plate contained 100 µl of parasite culture (0.5% parasitemia, 2.5% hematocrit). Each compound was tested in triplicate and parasite growth compared to control and blank (uninfected erythrocytes) wells. After 24h of incubation at 37°C, […] of [^3H]hypoxanthine was added to each well. Cultures were incubated for a further 24 h before they were harvested onto glass-fiber filter mats. The radioactivity was counted using a Wallac Microbeta® 1450 scintillation counter. The results were recorded as counts per minute (CPM) per well at each compound concentration, control and blank wells. Percentage inhibition was calculated from comparison to blank and control wells, and IC50 values calculated using Microsoft XLFit ® line fitting software (IDBS, UK).
(§4) Both the 3D7 clone and the K1 line were used. The compounds were diluted three-fold over at 12 different concentrations with an appropriate starting concentration based on the preliminary screen. The IC50 was determined by a sigmoidal dose response analysis using Microsoft XLFit™ (IDBS, UK).

[1] = test system: P. falciparum 3D7 clone of NF54; experiment: [3H]hypoxanthine drug sensitivity assay, 3D7 clone; assay type: cell-based; details: Plasmodium falciparum, read-out: IC50 3D7(µg/ml)
Procedure: as §1, §2
as §3, with “The results were recorded as counts per minute (CPM) per well at each compound concentration, control and blank wells.” left out
The preliminary screen used the 3D7 strain. The compounds were tested at 6 concentrations (30, 10, 3, 1, 0.3, and 0.1 µg/ml).
as §4

[2] = test system: Plasmodium berghei ANKA strain; experiment: In vivo antiparasitic activity in infected mice (4-day dosing, parasitemia on day 5); details: mice infected with P. berghei ANKA; for Activity at the dose 50 mg/kg (%): 50 mg/kg every day for 4 days; for Activity at the dose 10 mg/kg (%): 10 mg/kg every day for 4 days
Procedure: Female mice (TFW or BALB/c, specific pathogen free), 18-20 g, or
Infection: Blood was taken from donor mice and diluted in RPMI-1640 medium to a parasitemia of 1% (the equivalent of 1x10^7 infected erythrocytes/ml) whilst kept on ice. An inoculum of 0.2 ml was administered to each mouse by the intravenous route. At 2-4 hours post-inoculation dosing commences.
Evaluation endpoint: On day 5 blood smears of all animals (2 slides/mouse) were prepared, fixed with methanol and stained with 10% Giemsa's stain. Parasitemia was determined microscopically by counting 1000 red blood cells under oil immersion at 1000x magnification.
Each of the tested compounds of formula (I) according to the invention was prepared as a stock solution of 5 mg/ml in 10% DMSO/PBS. Insoluble compounds of formula (I) were milled with stainless steel balls for up to 24 hours to reduce particle size. Fresh dilutions were prepared each day. The route of administration of tested compounds is intra peritoneal (i.p.).
Compounds were formulated at 10 mg/kg or at 50 mg/kg in a standard suspension vehicle (0.5% carboxymethylcellulose, 0.5% benzyl alcohol, 0.4% Tween® 80 in 0.9% NaCl) for both oral and i.p. administration.
Dosing was over a 4 day period as above, and evaluation was also as above.

[3] = P. falciparum 3D7, sensitive to all anti-malarials, 48 h, [3H]hypoxanthine uptake

SMILES	IC50 (P. falciparum K1 strain; K1, read-out: IC50 K1) [µg/mL]	IC50 [1, 3] [µg/mL]	further results
CCN(CC)CCCC(C)Nc1ccnc2cc(Cl)ccc12 (stereo not shown) [Chloroquine, reference compound]			IC50 (P. falciparum K1 strain; K1): 0.13 to 0.21 µg/mL (≈ 0.406 to 0.656 µM)
O=C1[C@H]2Cc3c([nH]c4ccccc34)[C@@H](c3ccc4c(c3)OCO4)N2C(=O)CN1[C@@H]1CCN(Cc2ccccc2)C1 [Compound 6, (6R,12aR)-6-Benzo[1,3]dioxol-5-yl-2-((R)-1-benzyl-pyrrolidin-3-yl)-2,3,6,7,12,12a-hexahydro-pyrazino[1',2':1,6]pyrido [3,4-b] indole-1,4-dione]	0.12 (≈ 0.224 µM)	0.1 (≈ 0.187 µM)	Activity at the dose 50 mg/kg (%) [2]: 43%
O=C1[C@H]2Cc3c([nH]c4ccccc34)[C@@H](c3ccc4c(c3)OCO4)N2C(=O)CN1C1CCN(Cc2ccccc2)CC1 [Compound 10, (6R,12aR)-6-Benzo[1,3]dioxol-5-yl-2-(1-benzyl-piperidin-4-yl)-2,3,6,7,12,12a-hexahydro-pyrazino[1',2':1,6]pyrido[3,4-b]indole-1,4-dione]	0.01 (≈ 0.0182 µM)	0.27 (≈ 0.492 µM)	Activity at the dose 10 mg/kg (%) [2]: 15%; Activity at the dose 50 mg/kg (%) [2]: 31%
O=C1[C@H]2Cc3c([nH]c4ccccc34)[C@H](c3ccc4c(c3)OCO4)N2C(=O)CN1[C@@H]1CCN(Cc2ccccc2)C1 [Compound 14, (6S,12aR)-6-Benzo[1,3]dioxol-5-yl-2-((R)-1-benzyl-pyrrolidin-3-yl)-2,3,6,7,12,12a-hexahydro-pyrazino[1',2':1,6]pyrido [3,4-b]indole-1,4-dione]	1.03 (≈ 1.93 µM)	0.29 (≈ 0.542 µM)	
CN(CCN1CC(=O)N2[C@H](c3ccc4c(c3)OCO4)c3[nH]c4ccccc4c3C[C@@H]2C1=O)Cc1ccccc1 [Compound 15, (6R,12aR)-6-Benzo[1,3]dioxol-5-yl-2-[2-(benzyl-methyl-amino)-ethyl]-2,3,6,7,12,12a-hexahydro-pyrazino[1',2':1,6]pyrido [3,4-b]indole-1,4-dione]	0.4 (≈ 0.765 µM)	0.6 (≈ 1.15 µM)	
CN(CCN1CC(=O)N2[C@@H](c3ccc4c(c3)OCO4)c3[nH]c4ccccc4c3C[C@@H]2C1=O)Cc1ccccc1 [Compound 16, (6S,12aR)-6-Benzo[1,3]dioxol-5-yl-2-[2-(benzyl-methyl-amino)-ethyl]-2,3,6,7,12,12a-hexahydro-pyrazino[1',2':1,6]pyrido [3,4-b]indole-1,4-dione]			IC50 (P. falciparum K1 strain; K1, read-out: IC50 K1 (µg/ml)): 0.6 µg/mL (≈ 1.15 µM); IC50 [1]: 0.3 µg/mL (≈ 0.574 µM)
CN(CCCN1CC(=O)N2[C@H](c3ccc4c(c3)OCO4)c3[nH]c4ccccc4c3C[C@@H]2C1=O)Cc1ccccc1 [Compound 17, (6R,12aR)-6-Benzo[1,3]dioxol-5-yl-2-[3-(benzyl-methyl-amino)-propyl]-2,3,6,7,12,12a-hexahydro-pyrazino[1',2':1,6]pyrido [3,4-b]indole-1,4-dione]	0.19 (≈ 0.354 µM)	0.98 (≈ 1.83 µM)	
CN(CCCN1CC(=O)N2[C@@H](c3ccc4c(c3)OCO4)c3[nH]c4ccccc4c3C[C@@H]2C1=O)Cc1ccccc1 [Compound 18, (6S,12aR)-6-Benzo[1,3]dioxol-5-yl-2-[3-(benzyl-methyl-amino)-propyl]-2,3,6,7,12,12a-hexahydro-pyrazino[1',2':1,6]pyrido [3,4-b]indole-1,4-dione]			IC50 (P. falciparum K1 strain; K1, read-out: IC50 K1 (µg/ml)): 0.28 µg/mL (≈ 0.522 µM); IC50 [1]: 1.34 µg/mL (≈ 2.5 µM)
CN(C)c1ccc(CN2CC[C@@H](N3CC(=O)N4[C@H](c5ccc6c(c5)OCO6)c5[nH]c6ccccc6c5C[C@@H]4C3=O)C2)cc1 [Compound 26, (6R,12aR)-6-Benzo[1,3]dioxol-5-yl-2-[(R)-1-(4-dimethylamino-benzyl)-pyrrolidin-3-yl]-2,3,6,7,12,12a-hexahydro-pyrazino[1',2':1,6]pyrido[3,4-b]indole-1,4-dione]	0.14 (≈ 0.242 µM)	0.006 (≈ 0.0104 µM)	Activity at the dose 10 mg/kg (%) [2]: 15%; Activity at the dose 50 mg/kg (%) [2]: 17%
COc1ccc(CN2CC[C@@H](N3CC(=O)N4[C@H](c5ccc6c(c5)OCO6)c5[nH]c6ccccc6c5C[C@@H]4C3=O)C2)cc1 [Compound 31, (6R,12aR)-6-Benzo[1,3]dioxol-5-yl-2-[(R)-1-(4-methoxy-benzyl)-pyrrolidin-3-yl]-2,3,6,7,12,12a-hexahydro-pyrazino[1',2':1,6]pyrido[3,4-b]indole-1,4-dione]	0.13 (≈ 0.23 µM)	0.23 (≈ 0.407 µM)	
O=C1[C@H]2Cc3c([nH]c4ccccc34)[C@@H](c3ccc4c(c3)OCO4)N2C(=O)CN1[C@@H]1CCN(Cc2ccc3c(c2)OCO3)C1 [Compound 33, (6R,12aR)-6-Benzo[1,3]dioxol-5-yl-2-((R)-1-benzo[1,3]dioxol-5-ylmethyl-pyrrolidin-3-yl)-2,3,6,7,12,12a-hexahydro-pyrazino[1',2':1,6]pyrido[3,4-b]indole-1,4-dione]	0.16 (≈ 0.277 µM)	0.17 (≈ 0.294 µM)	
CC(C)(C)OC(=O)NCCN1CC[C@@H](N2CC(=O)N3[C@H](c4ccc5c(c4)OCO5)c4[nH]c5ccccc5c4C[C@@H]3C2=O)C1 [Compound 35, {2-[(R)-3-((6R,12aR)-6-Benzo[1,3]dioxol-5-yl-1,4-dioxo-3,4,6,7,12,12a-hexahydro-1H-pyrazino[1',2':1,6]pyrido[3,4-b]indol-2-yl)-pyrrolidin-1-yl]-ethyl)-carbamic acid tert-butyl ester]	0.015 (≈ 0.0255 µM)	0.07 (≈ 0.119 µM)	
O=C1[C@H]2Cc3c([nH]c4ccccc34)[C@@H](c3ccccc3)N2C(=O)CN1C1CCN(Cc2ccccc2)CC1 [Compound 90, (6R,12aR)-2-(1-Benzyl-piperidin-4-yl)-6-phenyl-2,3,6,7,12,12a-hexahydro-pyrazino[1',2':1,6]pyrido[3,4-b]indole-1,4-dione]	0.3 (≈ 0.594 µM)	0.48 (≈ 0.951 µM)	

Further lines, with some results ahead:

IC50 (P. falciparum K1 strain; K1, read-out: IC50 K1) [µg/mL]	IC50 [1, 3] [µg/mL]	SMILES	further results
0.15 (≈ 0.273 µM)	0.13 (≈ 0.237 µM)	O=C1[C@H]2Cc3c([nH]c4ccccc34)[C@@H](c3ccc4nsnc4c3)N2C(=O)CN1[C@@H]1CCN(Cc2ccccc2)C1 [Compound 70c, (6R,12aR)-6-Benzo[1,2,5]thiadiazol-5-yl-2-((R)-1-benzyl-pyrrolidin-3-yl)-2,3,6,7,12,12a-hexahydro-pyrazino[1',2':1,6] pyrido[3,4-b]indole-1,4-dione]	
0.5 (≈ 0.911 µM)	0.7 (≈ 1.28 µM)	O=C1[C@H]2Cc3c([nH]c4ccccc34)[C@H](c3ccc4nsnc4c3)N2C(=O)CN1[C@@H]1CCN(Cc2ccccc2)C1 [Compound 70t, (6S,12aR)-6-Benzo[1,2,5]thiadiazol-5-yl-2-((R)-1-benzyl-pyrrolidin-3-yl)-2,3,6,7,12,12a-hexahydro-pyrazino[1',2':1,6] pyrido[3,4-b]indole-1,4-dione]	
1.03 (≈ 1.96 µM)	0.09 (≈ 0.171 µM)	O=C1[C@H]2Cc3c([nH]c4ccccc34)[C@H](c3ccc(Cl)nc3)N2C(=O)CN1[C@@H]1CCN(Cc2ccccc2)C1 [Compound 84t, (6S,12aR)-2-((R)-1-Benzyl-pyrrolidin-3-yl)-6-(6-chloro-pyridin-3-yl)-2,3,6,7,12,12a-hexahydro-pyrazino[1',2':1,6] pyrido[3,4-b]indole-1,4-dione]	
2.47 (≈ 4.76 µM)	4.17 (≈ 8.04 µM)	O=C1[C@H]2Cc3c([nH]c4ccccc34)[C@H](Cc3ccccc3)N2C(=O)CN1C1CCN(Cc2ccccc2)CC1 [Compound 89t, (6S,12aR)-6-Benzyl-2-(1-benzyl-piperidin-4-yl)-2,3,6,7,12,12a-hexahydro-pyrazino[1',2':1,6]pyrido[3,4-b]indole-1,4-dione]	
4.07 (≈ 7.79 µM)	4.13 (≈ 7.9 µM)	Cn1ccnc1CN1CCC(N2CC(=O)N3[C@H](Cc4c([nH]c5ccccc45)[C@@H]3Cc3ccccc3)C2=O)CC1 [Compound 91t, (6S,12aR)-6-Benzyl-2-[1-(1-methyl-1H-imidazol-2-ylmethyl)-piperidin-4-yl]-2,3,6,7,12,12a-hexahydro-pyrazino-[1',2':1,6]pyrido[3,4-b]indole-1,4-dione]	
